Experimental data: PubChem BioAssay AID1671275

Molecular target: Ephrin type-B receptor 3 (Homo sapiens) (UniProt P54753)
Experiment: EPHB3 kinase inhibitors, dose response, biochemical, Z'-LYTE, FRET, protease-coupled, direct format (AID 1671275)
Conditions: Z'-LYTE FRET kinase activity assay, recombinant EPHB3

Sequence of Ephrin type-B receptor 3 (Homo sapiens) (P54753 whole entry, looked up): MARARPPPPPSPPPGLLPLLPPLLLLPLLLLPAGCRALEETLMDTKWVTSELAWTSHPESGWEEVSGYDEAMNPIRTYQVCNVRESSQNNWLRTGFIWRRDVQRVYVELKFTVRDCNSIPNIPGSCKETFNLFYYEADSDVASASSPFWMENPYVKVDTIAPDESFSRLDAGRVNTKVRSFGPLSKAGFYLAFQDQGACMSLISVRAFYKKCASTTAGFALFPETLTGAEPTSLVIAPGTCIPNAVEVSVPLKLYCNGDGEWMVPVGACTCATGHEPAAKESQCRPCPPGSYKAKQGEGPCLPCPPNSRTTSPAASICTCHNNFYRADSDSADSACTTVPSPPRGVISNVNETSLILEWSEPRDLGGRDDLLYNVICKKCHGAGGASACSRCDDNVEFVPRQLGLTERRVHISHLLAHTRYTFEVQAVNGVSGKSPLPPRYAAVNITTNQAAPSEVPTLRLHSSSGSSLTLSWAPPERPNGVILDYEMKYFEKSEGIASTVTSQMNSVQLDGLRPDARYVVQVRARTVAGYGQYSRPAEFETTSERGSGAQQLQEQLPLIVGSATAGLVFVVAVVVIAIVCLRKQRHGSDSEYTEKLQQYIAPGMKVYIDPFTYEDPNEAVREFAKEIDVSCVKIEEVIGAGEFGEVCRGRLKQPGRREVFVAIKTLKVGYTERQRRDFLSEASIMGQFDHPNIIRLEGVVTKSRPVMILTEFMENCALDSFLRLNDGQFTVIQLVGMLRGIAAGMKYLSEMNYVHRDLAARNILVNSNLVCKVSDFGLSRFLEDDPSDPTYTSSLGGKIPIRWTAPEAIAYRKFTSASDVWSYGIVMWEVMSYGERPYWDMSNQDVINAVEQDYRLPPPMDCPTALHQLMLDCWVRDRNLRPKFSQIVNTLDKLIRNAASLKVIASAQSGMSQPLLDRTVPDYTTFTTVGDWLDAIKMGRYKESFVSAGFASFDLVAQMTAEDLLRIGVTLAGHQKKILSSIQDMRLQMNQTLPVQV

IC50: 763 nM
SMILES: CC(C)(C)n1nc(-c2ccc(Cl)cc2)c2c(N)ncnc21
